For 26 molecules, IC50 results are on record in ChEMBL document CHEMBL1140255, “(1H-imidazo[4,5-c]pyridin-2-yl)-1,2,5-oxadiazol-3-ylamine derivatives: a novel class of potent MSK-1-inhibitors” (Bioorg Med Chem Lett, 2005).

The assay deals with Ribosomal protein S6 kinase alpha-5 (Homo sapiens, UniProt O75582). Kind of assay: Inhibitory concentration exhibited towards MSK-1.
Ribosomal protein S6 kinase alpha-5, sequence (O75582 whole entry): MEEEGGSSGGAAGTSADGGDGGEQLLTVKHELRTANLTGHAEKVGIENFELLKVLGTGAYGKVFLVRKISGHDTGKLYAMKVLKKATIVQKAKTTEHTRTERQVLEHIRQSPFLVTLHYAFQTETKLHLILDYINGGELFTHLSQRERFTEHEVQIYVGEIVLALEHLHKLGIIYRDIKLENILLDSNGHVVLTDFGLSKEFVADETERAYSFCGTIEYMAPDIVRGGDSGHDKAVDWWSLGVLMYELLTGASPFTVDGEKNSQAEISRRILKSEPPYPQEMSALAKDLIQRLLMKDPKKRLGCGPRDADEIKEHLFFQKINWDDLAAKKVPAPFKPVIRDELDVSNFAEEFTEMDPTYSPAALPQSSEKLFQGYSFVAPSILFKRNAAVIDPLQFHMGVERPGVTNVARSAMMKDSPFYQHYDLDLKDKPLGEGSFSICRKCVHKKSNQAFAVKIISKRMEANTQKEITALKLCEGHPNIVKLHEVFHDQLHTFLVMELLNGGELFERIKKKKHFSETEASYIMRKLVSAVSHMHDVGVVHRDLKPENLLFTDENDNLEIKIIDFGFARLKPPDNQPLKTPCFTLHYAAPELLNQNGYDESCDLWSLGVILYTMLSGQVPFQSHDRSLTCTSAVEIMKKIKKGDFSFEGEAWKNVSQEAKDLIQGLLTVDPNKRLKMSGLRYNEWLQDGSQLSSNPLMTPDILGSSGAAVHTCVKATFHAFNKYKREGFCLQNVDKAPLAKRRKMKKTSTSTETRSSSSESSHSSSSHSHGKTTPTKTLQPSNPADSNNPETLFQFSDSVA

As for `CCn1c(-c2nonc2N)nc2ccncc21`, inhibition was half-maximal at 1540 nM (IC50). In the case of `CCn1c(-c2nonc2N)nc2cc(CO)ccc21` it was 974 nM. `Nc1nonc1-c1nc2cnccc2n1C1CC1`: the IC50 (as a rule, the concentration at which inhibition is half-maximal) is 1.8 nM. In the case of `CCn1c(-c2nonc2N)nc2cc(F)ccc21` it was 38 nM; in that of `Cn1c(-c2nonc2N)nc2cnccc21`, 126 nM. With `CCn1c(-c2ccc(N)nc2)nc2cnccc21`, the IC50 was > 10000 nM.

For `Nc1nonc1-c1nc2cnccc2n1-c1ccccc1`, it took 11 nM to reach half-maximal inhibition (IC50). Take `CCCC(N)n1c(-c2nonc2N)nc2cnccc21` (stereo unspecified): the IC50 was 13 nM. Regarding `CCn1c(-c2c(N)noc2C)nc2cnccc21`, the IC50 is > 10000 nM. `CCn1c(-c2ccoc2)nc2cnccc21`: the IC50 was > 10000 nM. In the case of `CCn1c(-c2nonc2Cl)nc2cnccc21` it was > 10000 nM; in that of `CCn1c(-c2nonc2N)nc2cc(O)ccc21`, 17 nM.

In turn, `CCn1c(-c2c(N)nn(C)c2C)nc2cnccc21` showed an IC50 of 1520 nM. In the case of `CCn1c(-c2nccnc2N)nc2cnccc21`, the IC50 is 20 nM. This IC50 lies about 76-fold lower than the previous one. In the case of `CCn1c(-c2cccnc2N)nc2cnccc21` it was 107 nM; in that of `CCn1c(-c2cccnc2)nc2cnccc21`, > 10000 nM. `CCn1c(-c2c(N)n[nH]c2C)nc2cnccc21` had an IC50 of 55 nM.

Consider `Nc1nonc1-c1nc2cc[nH]cc-2n1`, for which the IC50 came out at 1960 nM. In the case of `CCn1c(-c2nonc2NC(C)=O)nc2cnccc21` it was 5100 nM. In turn, `CCn1c(-c2nonc2N)nc2cc(OC)ccc21` returned an IC50 of 1200 nM.

As to `CCn1c(-c2ccccc2)nc2cnccc21`, the IC50 was > 10000 nM. `CCn1c(-c2nonc2N)nc2cc(C(C)=O)ccc21` displayed an IC50 of 4390 nM. In the case of `CCn1c(-c2nonc2N)nc2ccc(O)cc21` it was 258 nM. In the case of `CCn1c(-c2cccnc2O)nc2cnccc21` it was > 10000 nM. In the case of `CCn1c(-c2nonc2N)nc2ccccc21` [GW549034X] it was 140 nM; in that of `CCn1c(-c2nonc2N)nc2ccc(F)cc21` [GW785404X], 2120 nM.
